Experimental data as given in PMC5896746 (ACS chemical biology, 2017).
Positions count from the first letter of the chain named.

How the values were obtained:
[1] = biological target: T1, hPKG Iβ 1–351 G306E (Homo sapiens, UniProt Q13976, G291E); assay: Competitive SPR, PKG Iβ R domain with site B disabled; format: binding; details: own affinity data
T1 sequence (Q13976 1-351 isoform Q13976-2 G306E): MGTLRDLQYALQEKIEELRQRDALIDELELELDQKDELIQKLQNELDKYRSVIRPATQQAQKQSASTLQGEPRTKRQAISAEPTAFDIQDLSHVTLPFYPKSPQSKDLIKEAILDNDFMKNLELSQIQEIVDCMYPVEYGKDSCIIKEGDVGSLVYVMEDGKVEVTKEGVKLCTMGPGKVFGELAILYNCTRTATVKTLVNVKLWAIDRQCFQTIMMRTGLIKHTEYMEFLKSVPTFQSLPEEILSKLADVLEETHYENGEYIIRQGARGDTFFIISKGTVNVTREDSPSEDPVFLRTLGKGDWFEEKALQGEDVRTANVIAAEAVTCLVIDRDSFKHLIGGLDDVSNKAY

[2] = biological target: T2, hPKG II 41–418 wt (Homo sapiens, UniProt Q13237); assay: Competitive SPR; format: binding; details: for Isotype selectivity in binding, PKG II: selective in binding PKG II
T2 sequence (Q13237 41-418): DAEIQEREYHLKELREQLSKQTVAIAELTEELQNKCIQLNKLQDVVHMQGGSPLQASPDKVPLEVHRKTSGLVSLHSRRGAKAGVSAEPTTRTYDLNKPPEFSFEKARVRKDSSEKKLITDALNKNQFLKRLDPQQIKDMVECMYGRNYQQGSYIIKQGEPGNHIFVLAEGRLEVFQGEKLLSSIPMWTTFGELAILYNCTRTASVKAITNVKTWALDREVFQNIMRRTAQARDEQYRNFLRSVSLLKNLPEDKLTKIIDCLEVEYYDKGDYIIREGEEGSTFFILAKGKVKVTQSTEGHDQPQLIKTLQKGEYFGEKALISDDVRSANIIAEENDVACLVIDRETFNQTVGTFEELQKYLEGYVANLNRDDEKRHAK

[3] = tested on: PKG II; details: read-out: Activation constant (previous activation data); cited from earlier work
[4] = tested on: PKG I; details: PKG I preincubated with [3H]cGMP, cited from earlier work
[5] = biological target: T3, hPKG Iβ 5–676 (Homo sapiens, UniProt Q13976); assay: Microfluidic mobility-shift kinase activation assay, PKG Iβ; details: for Activation constant Ka ± SEM: full-length PKG Iβ, microfluidic mobility shift assay
T3 sequence (Q13976 5-686 isoform Q13976-2): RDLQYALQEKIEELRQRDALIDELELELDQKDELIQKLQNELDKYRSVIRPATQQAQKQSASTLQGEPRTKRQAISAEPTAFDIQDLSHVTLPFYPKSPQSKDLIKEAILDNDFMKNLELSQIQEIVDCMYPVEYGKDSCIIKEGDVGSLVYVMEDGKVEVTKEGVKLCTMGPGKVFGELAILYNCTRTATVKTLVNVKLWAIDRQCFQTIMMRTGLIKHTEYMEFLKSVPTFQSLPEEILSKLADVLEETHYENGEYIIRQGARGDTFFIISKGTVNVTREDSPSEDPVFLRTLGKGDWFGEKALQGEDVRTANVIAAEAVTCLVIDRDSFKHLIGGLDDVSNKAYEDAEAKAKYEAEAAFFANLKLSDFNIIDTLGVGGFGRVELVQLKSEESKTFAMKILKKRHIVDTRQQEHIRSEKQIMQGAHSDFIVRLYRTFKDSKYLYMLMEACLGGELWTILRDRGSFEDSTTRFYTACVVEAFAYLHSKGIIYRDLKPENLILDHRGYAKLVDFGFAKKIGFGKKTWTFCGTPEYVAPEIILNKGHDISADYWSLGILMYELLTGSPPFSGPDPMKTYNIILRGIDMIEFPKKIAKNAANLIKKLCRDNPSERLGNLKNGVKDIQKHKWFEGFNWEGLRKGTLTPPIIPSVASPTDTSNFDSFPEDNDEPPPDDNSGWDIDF

[6] = biological target: T4, hPKG II 1–762 (Homo sapiens, UniProt Q13237); assay: Microfluidic mobility-shift kinase activation assay, PKG II; details: for Isotype selectivity in activating, PKG II: selective in activating PKG II; for Activation constant Ka ± SEM: full-length PKG II, microfluidic mobility shift assay
T4 sequence (Q13237 1-762): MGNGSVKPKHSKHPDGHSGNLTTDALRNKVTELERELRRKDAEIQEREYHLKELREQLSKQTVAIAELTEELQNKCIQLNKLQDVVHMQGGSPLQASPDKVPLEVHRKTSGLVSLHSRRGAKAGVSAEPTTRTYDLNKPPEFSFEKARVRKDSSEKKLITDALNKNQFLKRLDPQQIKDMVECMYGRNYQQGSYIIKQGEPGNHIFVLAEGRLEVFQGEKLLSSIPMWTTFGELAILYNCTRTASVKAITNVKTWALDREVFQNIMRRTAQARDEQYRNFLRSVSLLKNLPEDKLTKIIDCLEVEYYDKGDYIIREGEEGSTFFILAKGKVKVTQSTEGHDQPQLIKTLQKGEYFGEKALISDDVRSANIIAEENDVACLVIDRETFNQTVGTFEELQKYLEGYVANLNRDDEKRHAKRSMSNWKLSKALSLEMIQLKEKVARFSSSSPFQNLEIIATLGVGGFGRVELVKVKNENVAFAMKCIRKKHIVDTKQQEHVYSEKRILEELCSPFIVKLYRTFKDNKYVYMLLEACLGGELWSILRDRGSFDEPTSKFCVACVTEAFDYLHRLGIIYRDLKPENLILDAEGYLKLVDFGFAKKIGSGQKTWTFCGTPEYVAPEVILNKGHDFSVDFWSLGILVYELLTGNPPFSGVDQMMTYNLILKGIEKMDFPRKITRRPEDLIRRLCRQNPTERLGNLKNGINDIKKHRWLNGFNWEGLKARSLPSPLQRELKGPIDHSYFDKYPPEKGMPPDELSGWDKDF

[7] = biological target: T5, hPKG II 41–418 G356E (Homo sapiens, UniProt Q13237, G356E); assay: Competitive SPR, PKG II R domain with site B disabled; format: binding
T5 sequence (Q13237 41-418 G356E): T2 sequence (Q13237 41-418) with G316E

[8] = tested on: PKG Iβ; details: read-out: Activation constant (previous activation data); cited from earlier work
[9] = biological target: T6, hPKG Iβ 1–351 G182E (Homo sapiens, UniProt Q13976, G167E); assay: Competitive SPR, PKG Iβ R domain with site A disabled; format: binding; details: own affinity data
T6 sequence (Q13976 1-351 isoform Q13976-2 G182E): T1 sequence (Q13976 1-351 isoform Q13976-2 G306E) with G182E, E306G

[10] = biological target: T7, hPKG Iβ 1–351 wt (Homo sapiens, UniProt Q13976); assay: Competitive SPR
T7 sequence (Q13976 1-351 isoform Q13976-2): T1 sequence (Q13976 1-351 isoform Q13976-2 G306E) with E306G

SMILES	Binding to A site, fold stronger than cGMP [1]	Isotype selectivity in binding, PKG II [2]	EC50 [3] [nM]	Binding to slowly exchanging site (A site), fold stronger than cGMP [4] [fold]	Activation constant Ka ± SEM [5]	Isotype selectivity in activating, PKG II [6]	Selectivity for PKG II (EC50 compared to cGMP) ([2]; wild type R domain, SPR)	Reduction of EC50 at A site of PKG II compared to cGMP [7] [fold]	EC50 [8] [nM]	Activation constant Ka ± SEM [6]	Binding to B site, fold stronger than cGMP [9]	Binding to B site, fold stronger than cGMP ([4]; rapidly exchanging site) [fold]	Isotype selectivity in activating, PKG Iβ ([5]; selective in activating PKG Iβ)	Isotype selectivity in binding, PKG Iβ ([10]; selective in binding PKG Iβ)	Selectivity for PKG Iβ (EC50 compared to cGMP) ([10]; wild type R domain, SPR)
Nc1nc2c(nc(Br)n2[C@@H]2O[C@@H]3COP(=O)(O)O[C@H]3[C@H]2O)c(=O)[nH]1 [8-Br-cGMP, 8-bromoguanosine 3′,5′-cyclic monophosphate]	over 2 fold	~ 10 fold	25	3.4	206 ± 13 nM (3)	~ 4 fold									
Nc1nc2c(nc(Sc3ccc(Cl)cc3)n2[C@@H]2O[C@@H]3COP(=O)(O)O[C@H]3[C@H]2O)c(=O)[nH]1 [8-pCPT-cGMP, 8-(4-chlorophenylthio)guanosine-3′-5′-cyclic monophosphate]		40–50 fold			249 ± 17 nM (3)	~ 10 fold	~ 19 fold	> 50	440	22 ± 3 nM (4)					
O=c1c2ncn([C@@H]3O[C@@H]4COP(=O)(O)O[C@H]4[C@H]3O)c2nc2[nH]c(-c3ccccc3)cn12 [PET-cGMP, β-phenyl-1,N2-ethenoguanosine 3′,5′-monophosphate]					18 ± 2 nM (3)				20	225 ± 13 nM (3)	over 50 fold	10	~ 10 fold	40–50 fold	~ 40 fold
Nc1nc2c(ncn2[C@@H]2O[C@@H]3COP(=O)(O)O[C@H]3[C@H]2O)c(=O)[nH]1 [cGMP, Cyclic GMP]			40 to 360						250						
